# Test results: patent US6737383B1, “Herbicidal oxadiazolidines” (priority 1999, dated 2004)
# Columns and labels:
# rape = assay: Test B pre/postemergence rape; type: in vivo, Brassica napus
# In short: (§1)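 Test chemicals in a non-phytotoxic solvent mixture with surfactant were sprayed preemergence onto planted seeds and postemergence onto plants 2 to 18 cm tall (1- to 4-leaf stage). After twelve to sixteen days in a greenhouse, injury was visually rated against untreated controls from 0 (no effect) to 10 (complete control).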
# morningglory = assay: Test B pre/postemergence morningglory; type: in vivo, Ipomoea hederacea
# In short: as §1
# cocklebur = assay: Test B pre/postemergence cocklebur; type: in vivo, Xanthium strumarium
# In short: as §1
# giant foxtail = assay: Test B pre/postemergence giant foxtail; type: in vivo, Setaria faberii
# In short: as §1
# pigweed = assay: Test B pre/postemergence pigweed; type: in vivo, Amaranthus retroflexus
# In short: as §1
# blackgrass = assay: Test B pre/postemergence blackgrass; type: in vivo, Alopecurus myosuroides
# In short: as §1
# soybean = assay: Test B pre/postemergence soybean; type: in vivo, Glycine max
# In short: as §1
# corn = assay: Test B pre/postemergence corn; type: in vivo, Zea mays
# In short: as §1
# purple nutsedge = assay: Test B pre/postemergence purple nutsedge; type: in vivo, Cyperus rotundus
# In short: as §1
# wild oat = assay: Test B pre/postemergence wild oat; type: in vivo, Avena fatua
# In short: as §1
# surinam grass = assay: Test B pre/postemergence surinam grass; type: in vivo, Brachiaria decumbens
# In short: as §1
# crabgrass = assay: Test B pre/postemergence crabgrass; type: in vivo, Digitaria sanguinalis
# In short: as §1
# wheat = assay: Test B pre/postemergence wheat; type: in vivo, Triticum aestivum
# In short: as §1
# bedstraw = assay: Test B pre/postemergence bedstraw; type: in vivo, Galium aparine; conditions: Postemergence; for Plant response rating, Bedstraw: Rate 62 g/ha
# In short: as §1
# velvetleaf = assay: Test B pre/postemergence velvetleaf; type: in vivo, Abutilon theophrasti
# In short: as §1
# [1] = Postemergence, Rate 62 g/ha, scale 0 to 10, 0 is no effect, 10 is complete control
# [2] = Postemergence, Rate 125 g/ha, scale of 0 to 10 where 0 is no effect and 10 is complete control
# [3] = Preemergence, Rate 62 g/ha, scale of 0 to 10 where 0 is no effect and 10 is complete control
# [4] = Preemergence, Rate 125 g/ha, scale of 0 to 10 where 0 is no effect and 10 is complete control
# [5] = Preemergence, Rate 250 g/ha, scale 0 to 10 (0 no effect, 10 complete control)
# [6] = Preemergence, Rate 500 g/ha, scale of 0 to 10 where 0 is no effect and 10 is complete control
# [7] = Rate 500 g/ha, Postemergence, scale 0 to 10, 0 is no effect, 10 is complete control
# [8] = Postemergence, Rate 250 g/ha, scale of 0 to 10, 0 is no effect, 10 is complete control
# [9] = scale 0 to 10, 0 is no effect, 10 is complete control
smiles,measurement,setting,value
CC(C)N(C(=O)n1oc(=O)n(CC2CCCCO2)c1=O)c1ccc(Cl)cc1 (stereo not drawn) [Compound 660],"Plant response rating, Rape",rape; [1],0
same,Rape plant response rating,rape; [2],0
same,Rape plant response rating,rape; [3],0
same,Rape plant response rating,rape; [4],0
same,"Plant response rating, Rape",rape; [5],3
same,"Plant response rating, Rape",rape; [6],4
same,Rape plant response rating,rape; [7],0
same,"Plant response rating, Morningglory",morningglory; [1],1
same,Morningglory plant response rating,morningglory; [2],4
same,Morningglory plant response rating,morningglory; [8],6
same,Morningglory plant response rating,morningglory; [3],0
same,Morningglory plant response rating,morningglory; [4],0
same,"Plant response rating, Morningglory",morningglory; [5],0
same,"Plant response rating, Morningglory",morningglory; [6],0
same,Morningglory plant response rating,morningglory; [7],7
same,"Plant response rating, Cocklebur",cocklebur; [1],0
same,Cocklebur plant response rating,cocklebur; [2],0
same,Cocklebur plant response rating,cocklebur; [8],2
same,Cocklebur plant response rating,cocklebur; [3],0
same,Cocklebur plant response rating,cocklebur; [4],0
same,"Plant response rating, Cocklebur",cocklebur; [5],0
same,"Plant response rating, Cocklebur",cocklebur; [6],0
same,Cocklebur plant response rating,cocklebur; [7],2
same,"Plant response rating, Giant foxtail",giant foxtail; [1],3
same,Giant foxtail plant response rating,giant foxtail; [2],4
same,Giant foxtail plant response rating,giant foxtail; [8],5
same,Giant foxtail plant response rating,giant foxtail; [3],8
same,Giant foxtail plant response rating,giant foxtail; [4],10
same,"Plant response rating, Giant foxtail",giant foxtail; [5],10
same,"Plant response rating, Giant foxtail",giant foxtail; [6],10
same,Giant foxtail plant response rating,giant foxtail; [7],8
same,"Plant response rating, Redroot pigweed",pigweed; [1],2
same,Redroot pigweed plant response rating,pigweed; [2],2
same,Redroot pigweed plant response rating,pigweed; [3],0
same,Redroot pigweed plant response rating,pigweed; [4],5
same,"Plant response rating, Redroot pigweed",pigweed; [5],7
same,"Plant response rating, Redroot pigweed",pigweed; [6],10
same,Redroot pigweed plant response rating,pigweed; [7],6
same,"Plant response rating, Blackgrass",blackgrass; [1],0
same,Blackgrass plant response rating,blackgrass; [2],0
same,Blackgrass plant response rating,blackgrass; [8],3
same,Blackgrass plant response rating,blackgrass; [3],0
same,Blackgrass plant response rating,blackgrass; [4],4
same,"Plant response rating, Blackgrass",blackgrass; [5],6
same,"Plant response rating, Blackgrass",blackgrass; [6],7
same,Blackgrass plant response rating,blackgrass; [7],6
same,"Plant response rating, Soybean",soybean; [1],2
same,Soybean plant response rating,soybean; [2],3
same,Soybean plant response rating,soybean; [3],0
same,Soybean plant response rating,soybean; [4],0
same,"Plant response rating, Soybean",soybean; [5],0
same,"Plant response rating, Soybean",soybean; [6],0
same,Soybean plant response rating,soybean; [7],6
same,"Plant response rating, Corn",corn; [1],0
same,Corn plant response rating,corn; [2],0
same,Corn plant response rating,corn; [8],0
same,Corn plant response rating,corn; [3],0
same,Corn plant response rating,corn; [4],0
same,"Plant response rating, Corn",corn; [5],0
same,"Plant response rating, Corn",corn; [6],0
same,Corn plant response rating,corn; [7],2
same,"Plant response rating, Nutsedge",purple nutsedge; [1],0
same,Nutsedge plant response rating,purple nutsedge; [2],0
same,Nutsedge plant response rating,purple nutsedge; [3],0
same,Nutsedge plant response rating,purple nutsedge; [4],0
same,"Plant response rating, Nutsedge",purple nutsedge; [5],0
same,"Plant response rating, Nutsedge",purple nutsedge; [6],0
same,Nutsedge plant response rating,purple nutsedge; [7],0
same,"Plant response rating, Wild oats",wild oat; [1],0
same,Wild oats plant response rating,wild oat; [2],0
same,Wild oats plant response rating,wild oat; [3],0
same,Wild oats plant response rating,wild oat; [4],0
same,"Plant response rating, Wild oats",wild oat; [5],2
same,"Plant response rating, Wild oats",wild oat; [6],3
same,Wild oats plant response rating,wild oat; [7],0
same,"Plant response rating, B. signalgrass",surinam grass; [1],0
same,"Plant response rating, B. signalgrass",surinam grass; [2],0
same,B. signalgrass plant response rating,surinam grass; [8],0
same,B. signalgrass plant response rating,surinam grass; [3],0
same,B. signalgrass plant response rating,surinam grass; [4],1
same,"Plant response rating, B. signalgrass",surinam grass; [5],4
same,"Plant response rating, B. signalgrass",surinam grass; [6],4
same,B. signalgrass plant response rating,surinam grass; [7],5
same,"Plant response rating, Crabgrass",crabgrass; [1],0
same,Crabgrass plant response rating,crabgrass; [2],1
same,Crabgrass plant response rating,crabgrass; [8],5
same,Crabgrass plant response rating,crabgrass; [3],4
same,Crabgrass plant response rating,crabgrass; [4],7
same,"Plant response rating, Crabgrass",crabgrass; [5],8
same,"Plant response rating, Crabgrass",crabgrass; [6],9
same,Crabgrass plant response rating,crabgrass; [7],7
same,"Plant response rating, Wheat",wheat; [1],0
same,Wheat plant response rating,wheat; [2],0
same,Wheat plant response rating,wheat; [3],0
same,Wheat plant response rating,wheat; [4],0
same,"Plant response rating, Wheat",wheat; [5],0
same,"Plant response rating, Wheat",wheat; [6],0
same,Wheat plant response rating,wheat; [7],0
same,"Plant response rating, Bedstraw",bedstraw; [9],0
same,Bedstraw plant response rating,"bedstraw; Rate 125 g/ha, scale of 0 to 10 where 0 is no effect and 10 is complete control",0
same,Bedstraw plant response rating,"bedstraw; Rate 500 g/ha, scale 0 to 10, 0 is no effect, 10 is complete control",0
same,"Plant response rating, Velvetleaf",velvetleaf; [1],0
same,Velvetleaf plant response rating,velvetleaf; [2],2
same,Velvetleaf plant response rating,velvetleaf; [3],0
same,Velvetleaf plant response rating,velvetleaf; [4],0
same,"Plant response rating, Velvetleaf",velvetleaf; [5],0
same,"Plant response rating, Velvetleaf",velvetleaf; [6],0
same,Velvetleaf plant response rating,velvetleaf; [7],3
CC[C@H](C)n1c(=O)on(C(=O)N(c2ccc(Cl)cc2)C(C)C)c1=O [Compound 664],"Plant response rating, Rape",rape; [1],0
same,Rape plant response rating,rape; [2],0
same,Rape plant response rating,rape; [3],0
same,Rape plant response rating,rape; [4],1
same,"Plant response rating, Rape",rape; [5],1
same,"Plant response rating, Rape",rape; [6],6
same,Rape plant response rating,rape; [7],3
same,"Plant response rating, Morningglory",morningglory; [1],0
same,Morningglory plant response rating,morningglory; [2],2
same,Morningglory plant response rating,morningglory; [8],9
same,Morningglory plant response rating,morningglory; [3],0
same,Morningglory plant response rating,morningglory; [4],0
same,"Plant response rating, Morningglory",morningglory; [5],0
same,"Plant response rating, Morningglory",morningglory; [6],4
same,Morningglory plant response rating,morningglory; [7],10
same,"Plant response rating, Cocklebur",cocklebur; [1],0
same,Cocklebur plant response rating,cocklebur; [2],0
same,Cocklebur plant response rating,cocklebur; [8],2
same,Cocklebur plant response rating,cocklebur; [3],0
same,Cocklebur plant response rating,cocklebur; [4],0
same,"Plant response rating, Cocklebur",cocklebur; [5],0
same,"Plant response rating, Cocklebur",cocklebur; [6],3
same,Cocklebur plant response rating,cocklebur; [7],6
same,"Plant response rating, Giant foxtail",giant foxtail; [1],2
same,Giant foxtail plant response rating,giant foxtail; [2],6
same,Giant foxtail plant response rating,giant foxtail; [8],9
same,Giant foxtail plant response rating,giant foxtail; [3],9
same,Giant foxtail plant response rating,giant foxtail; [4],10
same,"Plant response rating, Giant foxtail",giant foxtail; [5],10
same,"Plant response rating, Giant foxtail",giant foxtail; [6],10
same,Giant foxtail plant response rating,giant foxtail; [7],9
same,"Plant response rating, Redroot pigweed",pigweed; [1],0
same,Redroot pigweed plant response rating,pigweed; [2],2
same,Redroot pigweed plant response rating,pigweed; [3],2
same,Redroot pigweed plant response rating,pigweed; [4],7
same,"Plant response rating, Redroot pigweed",pigweed; [5],7
same,"Plant response rating, Redroot pigweed",pigweed; [6],10
same,Redroot pigweed plant response rating,pigweed; [7],6
same,"Plant response rating, Blackgrass",blackgrass; [1],4
same,Blackgrass plant response rating,blackgrass; [2],7
same,Blackgrass plant response rating,blackgrass; [8],9
same,Blackgrass plant response rating,blackgrass; [3],5
same,Blackgrass plant response rating,blackgrass; [4],6
same,"Plant response rating, Blackgrass",blackgrass; [5],6
same,"Plant response rating, Blackgrass",blackgrass; [6],8
same,Blackgrass plant response rating,blackgrass; [7],9
same,"Plant response rating, Soybean",soybean; [1],3
same,Soybean plant response rating,soybean; [2],4
same,Soybean plant response rating,soybean; [3],0
same,Soybean plant response rating,soybean; [4],0
same,"Plant response rating, Soybean",soybean; [5],0
same,"Plant response rating, Soybean",soybean; [6],0
same,"Plant response rating, Corn",corn; [1],0
same,Corn plant response rating,corn; [2],0
same,Corn plant response rating,corn; [8],0
same,Corn plant response rating,corn; [3],0
same,Corn plant response rating,corn; [4],0
same,"Plant response rating, Corn",corn; [5],0
same,"Plant response rating, Corn",corn; [6],0
same,Corn plant response rating,corn; [7],0
same,"Plant response rating, Nutsedge",purple nutsedge; [1],0
same,Nutsedge plant response rating,purple nutsedge; [2],0
same,Nutsedge plant response rating,purple nutsedge; [3],0
same,Nutsedge plant response rating,purple nutsedge; [4],0
same,"Plant response rating, Nutsedge",purple nutsedge; [5],0
same,"Plant response rating, Nutsedge",purple nutsedge; [6],0
same,Nutsedge plant response rating,purple nutsedge; [7],0
same,"Plant response rating, Wild oats",wild oat; [1],0
same,Wild oats plant response rating,wild oat; [2],0
same,Wild oats plant response rating,wild oat; [3],0
same,Wild oats plant response rating,wild oat; [4],3
same,"Plant response rating, Wild oats",wild oat; [5],3
same,"Plant response rating, Wild oats",wild oat; [6],7
same,Wild oats plant response rating,wild oat; [7],7
same,"Plant response rating, B. signalgrass",surinam grass; [1],0
same,"Plant response rating, B. signalgrass",surinam grass; [2],0
same,B. signalgrass plant response rating,surinam grass; [8],4
same,B. signalgrass plant response rating,surinam grass; [3],1
same,B. signalgrass plant response rating,surinam grass; [4],5
same,"Plant response rating, B. signalgrass",surinam grass; [5],5
same,"Plant response rating, B. signalgrass",surinam grass; [6],8
same,B. signalgrass plant response rating,surinam grass; [7],7
same,"Plant response rating, Crabgrass",crabgrass; [1],0
same,Crabgrass plant response rating,crabgrass; [2],1
same,Crabgrass plant response rating,crabgrass; [8],9
same,Crabgrass plant response rating,crabgrass; [3],4
same,Crabgrass plant response rating,crabgrass; [4],8
same,"Plant response rating, Crabgrass",crabgrass; [5],9
same,"Plant response rating, Crabgrass",crabgrass; [6],10
same,Crabgrass plant response rating,crabgrass; [7],9
same,"Plant response rating, Wheat",wheat; [1],0
same,Wheat plant response rating,wheat; [2],0
same,Wheat plant response rating,wheat; [3],0
same,Wheat plant response rating,wheat; [4],0
same,"Plant response rating, Wheat",wheat; [5],0
same,"Plant response rating, Wheat",wheat; [6],5
same,Wheat plant response rating,wheat; [7],2
same,"Plant response rating, Bedstraw",bedstraw; [9],0
same,"Plant response rating, Velvetleaf",velvetleaf; [1],0
same,Velvetleaf plant response rating,velvetleaf; [2],0
same,Velvetleaf plant response rating,velvetleaf; [3],0
same,Velvetleaf plant response rating,velvetleaf; [4],0
same,"Plant response rating, Velvetleaf",velvetleaf; [5],5
same,"Plant response rating, Velvetleaf",velvetleaf; [6],5
same,Velvetleaf plant response rating,velvetleaf; [7],6
